Experiments:
[1] = target: T1, Caspase-1 (Mus musculus) (UniProt P29452); assay: Inhibitory activity against murine Caspase-1
T1 sequence (whole entry): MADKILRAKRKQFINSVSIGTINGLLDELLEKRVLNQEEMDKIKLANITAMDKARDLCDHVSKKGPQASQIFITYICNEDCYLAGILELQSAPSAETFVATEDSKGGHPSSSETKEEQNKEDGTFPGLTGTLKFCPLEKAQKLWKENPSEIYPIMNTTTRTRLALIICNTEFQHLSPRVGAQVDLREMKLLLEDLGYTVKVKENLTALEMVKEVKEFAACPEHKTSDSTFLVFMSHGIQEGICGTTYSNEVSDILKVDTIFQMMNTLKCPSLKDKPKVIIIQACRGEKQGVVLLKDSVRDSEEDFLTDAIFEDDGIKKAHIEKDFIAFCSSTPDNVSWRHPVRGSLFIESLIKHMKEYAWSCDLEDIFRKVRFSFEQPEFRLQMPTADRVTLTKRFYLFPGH

[2] = tested on: Jurkat; assay: Inhibitory concentration against JFas cells; type: functional, cell-based; settings: Homo sapiens
[3] = tested on: THP-1; assay: Inhibitory concentration against THP-1 cells; type: functional, cell-based; settings: Homo sapiens
[4] = target: T2, Caspase-3 (Homo sapiens) (UniProt P42574); assay: Inhibitory activity against Caspase-3
T2 sequence (whole entry): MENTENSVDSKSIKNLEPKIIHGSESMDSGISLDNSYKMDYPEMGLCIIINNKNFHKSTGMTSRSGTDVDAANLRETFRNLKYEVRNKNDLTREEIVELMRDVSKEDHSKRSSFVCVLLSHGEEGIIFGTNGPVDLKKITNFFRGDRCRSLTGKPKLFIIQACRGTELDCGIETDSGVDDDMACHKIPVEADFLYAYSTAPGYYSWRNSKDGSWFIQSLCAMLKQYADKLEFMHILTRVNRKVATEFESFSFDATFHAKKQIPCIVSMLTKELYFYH

[5] = target: T3, Caspase-6 (Homo sapiens) (UniProt P55212); assay: Inhibitory activity against Caspase-6
T3 sequence (whole entry): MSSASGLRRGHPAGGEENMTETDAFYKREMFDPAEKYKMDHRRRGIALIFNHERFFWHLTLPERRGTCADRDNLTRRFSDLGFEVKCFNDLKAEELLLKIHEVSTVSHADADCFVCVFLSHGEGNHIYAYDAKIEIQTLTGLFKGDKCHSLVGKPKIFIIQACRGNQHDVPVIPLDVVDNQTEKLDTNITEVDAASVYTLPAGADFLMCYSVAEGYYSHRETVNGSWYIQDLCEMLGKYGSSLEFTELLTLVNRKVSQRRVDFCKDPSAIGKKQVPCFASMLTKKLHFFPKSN

[6] = target: Caspase-8 (Homo sapiens) (UniProt Q14790); assay: Inhibitory activity against Caspase-8
Chain of Caspase-8 (Homo sapiens) (Q14790 217-374 limits assumed): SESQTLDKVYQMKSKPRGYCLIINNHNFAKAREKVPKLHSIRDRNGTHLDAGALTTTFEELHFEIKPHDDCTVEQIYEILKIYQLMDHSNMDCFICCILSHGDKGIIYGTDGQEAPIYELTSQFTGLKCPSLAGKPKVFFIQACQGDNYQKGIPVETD
Chain of Caspase-8 (Homo sapiens) (Q14790 385-479 limits assumed): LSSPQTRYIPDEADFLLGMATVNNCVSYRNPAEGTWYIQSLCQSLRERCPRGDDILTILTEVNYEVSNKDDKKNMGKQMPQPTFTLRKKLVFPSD

[7] = tested on: Mus musculus; assay: Effective dose required for pancaspase inhibition in a-Fas liver upon i.p. administration; settings: ip
[8] = tested on: Mus musculus; assay: Effective dose required for pancaspase inhibition in a-Fas liver upon i.p. administration; range = 0.06-0.12; settings: ip
[9] = tested on: Mus musculus; assay: Effective dose required for pancaspase inhibition in a-Fas liver upon i.p. administration; range = 0.02-0.11; settings: ip

| Structure (SMILES) | k3/Ki [1] [M⁻¹ s⁻¹] | IC50 [2] [nM] | IC50 [3] [nM] | k3/Ki [4] [M⁻¹ s⁻¹] | k3/Ki [5] [M⁻¹ s⁻¹] | k3/Ki [6] [M⁻¹ s⁻¹] | ED50 [7] [mg/kg] | ED50 [8] [mg/kg] | ED50 [9] [mg/kg] |
| --- | --- | --- | --- | --- | --- | --- | --- | --- | --- |
| C[C@H](NC(=O)C(=O)Nc1ccccc1F)C(=O)N[C@@H](CC(=O)O)C(=O)COc1c(F)c(F)cc(F)c1F | 1.14e+06 | 160 | 160 | 70000 | 19800 | 114000 | – | – | – |
| C[C@H](NC(=O)C(=O)Nc1ccccc1-c1ccc[nH]1)C(=O)N[C@@H](CC(=O)O)C(=O)COc1c(F)c(F)cc(F)c1F | 1.52e+06 | 56 | > 32000 | 12000 | 7750 | 1.2e+06 | – | – | – |
| C[C@H](NC(=O)C(=O)Nc1ccccc1C(C)(C)C)C(=O)N[C@@H](CC(=O)O)C(=O)COP(=O)(c1ccccc1)c1ccccc1 | 2.16e+06 | 81 | 9090 | 99100 | 52100 | 2.01e+06 | 0.14 | – | – |
| Cc1c(C(=O)N[C@H](C(=O)NC(CC(=O)O)C(=O)CF)C(C)C)n(C)c2ccccc12 (some centres not stated) | 10100 | 1300 | 10000 | 19000 | 98000 | 34400 | – | – | – |
| C[C@H](NC(=O)C(=O)Nc1ccccc1Br)C(=O)N[C@@H](CC(=O)O)C(=O)COc1c(F)c(F)cc(F)c1F | 1.34e+06 | 75 | 50 | 186000 | 25200 | 542000 | – | – | – |
| C[C@H](NC(=O)C(=O)Nc1ccccc1-c1ccccc1)C(=O)N[C@@H](CC(=O)O)C(=O)COC(=O)c1c(Cl)cccc1Cl | 7.28e+06 | 390 | 4360 | 29000 | 61000 | 342000 | – | – | – |
| C[C@H](NC(=O)C(=O)NCc1ccccc1)C(=O)N[C@@H](CC(=O)O)C(=O)COc1c(F)c(F)cc(F)c1F | 674000 | 300 | 160 | 35500 | 37100 | 32500 | – | – | – |
| C[C@H](NC(=O)C(=O)Nc1ccccn1)C(=O)N[C@@H](CC(=O)O)C(=O)COc1c(F)c(F)cc(F)c1F | 468000 | 1040 | 200 | 44000 | 23700 | 201000 | – | – | – |
| C[C@H](NC(=O)C(=O)Nc1ccccc1Oc1ccccc1)C(=O)N[C@@H](CC(=O)O)C(=O)COc1c(F)c(F)cc(F)c1F | 960000 | 530 | 800 | 51000 | 5900 | 154000 | – | – | – |
| C[C@H](NC(=O)C(=O)Nc1ccccc1Cl)C(=O)N[C@@H](CC(=O)O)C(=O)COC(=O)c1c(Cl)cccc1Cl | 8.31e+06 | 1170 | 320 | 256000 | 44000 | 109 | – | – | – |
| C[C@H](NC(=O)C(=O)Nc1ccccc1C(F)(F)F)C(=O)N[C@@H](CC(=O)O)C(=O)COc1c(F)c(F)cc(F)c1F | 9.95e+06 | 61 | 190 | 309000 | 45600 | 332000 | – | – | – |
| C[C@H](NC(=O)C(=O)Nc1ccccc1Cc1ccccc1)C(=O)N[C@@H](CC(=O)O)C(=O)COc1c(F)c(F)cc(F)c1F | 1.97e+06 | 10 | 540 | 44400 | 33600 | 617000 | – | – | – |
| C[C@H](NC(=O)C(=O)NC1CCCCC1)C(=O)N[C@@H](CC(=O)O)C(=O)COc1c(F)c(F)cc(F)c1F | 390000 | 150 | 500 | 21000 | 268 | 2800 | – | – | – |
| O=C(O)CC(NC(=O)[C@@H]1Cc2cccc3c2N1C(=O)[C@@H](NC(=O)OCc1ccccc1)CC3)C(=O)CF (some centres not stated) | 1.2e+07 | 510 | 300 | 960000 | 25000 | 98000 | – | – | – |
| C[C@H](NC(=O)C(=O)Nc1cc(C(C)(C)C)ccc1C(C)(C)C)C(=O)N[C@@H](CC(=O)O)C(=O)COP(=O)(c1ccccc1)c1ccccc1 | 2.71e+06 | 109 | 5870 | 18300 | 7640 | 970000 | 0.5 | – | – |
| C[C@H](NC(=O)C(=O)Nc1ccccc1)C(=O)N[C@@H](CC(=O)O)C(=O)COc1c(F)c(F)cc(F)c1F | 127000 | 670 | 140 | 25400 | 31700 | 65300 | – | – | – |
| C[C@H](NC(=O)C(=O)Nc1ccccc1C(C)(C)C)C(=O)N[C@@H](CC(=O)O)C(=O)COc1c(F)c(F)cc(F)c1F [EMRICASAN] | 689000 | 25 | 270 | 75700 | 58700 | 2.94e+06 | – | 0.08 | – |
| C[C@H](NC(=O)C(=O)Nc1cc(C(C)(C)C)ccc1C(C)(C)C)C(=O)N[C@@H](CC(=O)O)C(=O)COc1c(F)c(F)cc(F)c1F | 1.63e+07 | 62 | 1840 | 38200 | 15400 | 365000 | – | – | 0.05 |
| C[C@H](NC(=O)C(=O)Nc1ccc2c(c1)CCC2)C(=O)N[C@@H](CC(=O)O)C(=O)COc1c(F)c(F)cc(F)c1F | 270000 | 200 | 120 | 42000 | 31900 | 204000 | – | – | – |
| C[C@H](NC(=O)C(=O)Nc1cc(C(C)(C)C)ccc1C(C)(C)C)C(=O)N[C@@H](CC(=O)O)C(=O)COC(=O)c1c(Cl)cccc1Cl | 4.02e+06 | 1380 | 3130 | 30000 | 6400 | 68 | – | – | – |
| C[C@H](NC(=O)C(=O)Nc1ccccc1C(C)(C)C)C(=O)N[C@@H](CC(=O)O)C(=O)COC(=O)c1c(Cl)cccc1Cl | 8.33e+06 | 143 | 11800 | 236000 | 105000 | 4300 | 45.8 | – | – |
| C[C@H](NC(=O)C(=O)Nc1cccc2ccccc12)C(=O)N[C@@H](CC(=O)O)C(=O)COc1c(F)c(F)cc(F)c1F | 1.7e+06 | 86 | 60 | 57000 | 18500 | 460000 | – | – | – |

From ChEMBL document CHEMBL1141033, “First-in-class pan caspase inhibitor developed for the treatment of liver disease” (J Med Chem, 2005)
